The target in assay [1] is PIM3 (Homo sapiens, UniProt Q86V86). Details: purchased Eurofins; method as in earlier work. Particulars: cited from earlier work.
Assay [2] addresses T1, MAP3K19 (Homo sapiens, UniProt Q56UN5).
T1 construct: purchased Eurofins DiscoverX (scanMAX) / Eurofins enzymatic assays
The experiment in a line: DiscoverX scanMAX competition binding assay. From the text:
(§1) Based on its narrow profile when tested in the combined Nanosyn and TSA panels, GW296115 was included in the recently released Kinase Chemogenomic Set (KCGS)[15]. All of the data presented in the Introduction section was collected prior to the inclusion of GW296115 in KCGS and everything that follows has been subsequently generated. Since its inclusion in PKIS and more recently KCGS, we have carried out a broader round of screening at DiscoverX. This profiling data has not been previously released and is reported here for the first time. GW296115 was profiled against 403 wild type human kinases at 1 μM using the DiscoverX scanMAX screening platform, which employs an active site-directed competition binding assay to quantitatively measure interactions between test compounds and kinases, [16]. GW296115 inhibited 25 kinases > 90% at 1 μM, resulting in a selectivity index (S10) of 0.062 at 1 μM (Table S2, Fig. 1C)[17].
(§2) The scanMAX assays were performed at Eurofins DiscoverX Corporation as previously described.

For assay [3], the target named is T2, MAP2K5 (Homo sapiens, UniProt Q13163).
T2 construct: purchased Eurofins DiscoverX (scanMAX) / Eurofins enzymatic assays
Nature of the assay: DiscoverX scanMAX competition binding assay.
Text: as §1, §2

Assay [4] concerns the target T3, GAK (Homo sapiens, UniProt O14976).
T3 construct: purchased Eurofins DiscoverX (scanMAX) / Eurofins enzymatic assays
Nature of the assay: DiscoverX scanMAX competition binding assay.
Text: as §1, §2

Assay [5] addresses T4, EPHB6 (Homo sapiens, UniProt O15197).
T4 construct: purchased Eurofins DiscoverX Corporation
Nature of the assay: DiscoverX scanMAX competition binding assay.
Text: as §1, §2

The target in assay [6] is T5, RPS6KA3/RSK2 (Homo sapiens, UniProt P51812).
T5 construct: purchased Eurofins
The experiment in a line: Eurofins kinase enzymatic radiometric assay. The conditions noted are these: Km of ATP, 9-point curve in duplicate. In kind it is biochemical. From the text: Due to our interest in the activity of GW296115 on several understudied IDG kinases, we collected full dose–response curves for all wild type kinases inhibited ≥ 75% in the DiscoverX panel that were offered by Eurofins. Having data in orthogonal formats is a powerful way to confirm inhibitory activity and adds rigor to our results. Eurofins has kinase enzymatic radiometric assays for 35 of the kinases on this list (Table S2) and a kinase enzymatic LANCE assay for one additional kinase (MAP2K5/MEK5).
Eurofins kinase enzymatic radiometric assays were carried out at the Km of ATP in dose–response (9-pt curve in duplicate) for each kinase for which it was offered.

Assay [7] concerns the target SGK3 (Homo sapiens, UniProt Q96BR1). The experiment in a line: DiscoverX scanMAX competition binding assay. Details: purchased Eurofins DiscoverX Corporation.
Text: as §1, §2

Assay [8] addresses DAPK1 (Homo sapiens, UniProt P53355). Nature of the assay: DiscoverX scanMAX competition binding assay. Details: purchased Eurofins DiscoverX Corporation.
Text: as §1, §2

The target in assay [9] is ROS1 (Homo sapiens, UniProt P08922). Nature of the assay: DiscoverX scanMAX competition binding assay. Details: purchased Eurofins DiscoverX Corporation.
Text: as §1, §2

Assay [10] deals with NUAK1/ARK5 (Homo sapiens, UniProt O60285). Nature of the assay: DiscoverX scanMAX competition binding assay. Details: purchased Eurofins DiscoverX Corporation.
Text: as §1, §2

The target in assay [11] is T6, BRSK1 (Homo sapiens, UniProt Q8TDC3).
T6 sequence (Q8TDC3 1-778): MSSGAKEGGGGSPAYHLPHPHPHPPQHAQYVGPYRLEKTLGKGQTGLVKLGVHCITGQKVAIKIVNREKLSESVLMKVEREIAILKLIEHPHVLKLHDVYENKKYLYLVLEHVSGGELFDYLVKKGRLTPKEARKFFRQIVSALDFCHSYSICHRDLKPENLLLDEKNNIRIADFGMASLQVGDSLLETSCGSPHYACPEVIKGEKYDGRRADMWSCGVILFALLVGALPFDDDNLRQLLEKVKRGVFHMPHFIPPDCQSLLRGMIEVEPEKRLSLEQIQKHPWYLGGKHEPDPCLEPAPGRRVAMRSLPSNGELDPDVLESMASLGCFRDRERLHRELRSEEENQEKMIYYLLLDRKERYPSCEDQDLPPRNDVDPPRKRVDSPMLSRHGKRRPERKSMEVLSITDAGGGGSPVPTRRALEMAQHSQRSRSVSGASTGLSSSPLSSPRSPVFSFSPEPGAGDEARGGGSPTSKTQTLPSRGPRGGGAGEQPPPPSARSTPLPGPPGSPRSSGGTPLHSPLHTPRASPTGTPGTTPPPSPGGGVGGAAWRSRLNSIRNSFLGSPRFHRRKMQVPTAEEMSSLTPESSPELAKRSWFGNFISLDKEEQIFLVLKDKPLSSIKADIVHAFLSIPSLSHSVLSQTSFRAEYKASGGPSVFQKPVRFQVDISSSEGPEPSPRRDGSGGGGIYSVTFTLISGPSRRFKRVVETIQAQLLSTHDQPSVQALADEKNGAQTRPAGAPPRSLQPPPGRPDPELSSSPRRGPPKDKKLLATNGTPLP
The experiment in a line: DiscoverX scanMAX competition binding assay. Set-up: purchased Eurofins DiscoverX Corporation.
Text: as §1, §2

The target in assay [12] is AXL (Homo sapiens, UniProt P30530). The experiment in a line: DiscoverX scanMAX competition binding assay. Details: purchased Eurofins DiscoverX Corporation.
Text: as §1, §2

In assay [13] the target is DCLK3/DCAMKL3 (Homo sapiens, UniProt Q9C098). The experiment in a line: DiscoverX scanMAX competition binding assay. Set-up: purchased Eurofins DiscoverX Corporation.
Text: as §1, §2

Molecules are shown by their SMILES.

Data on 1 compound can be found in PMC7522982, “PKIS deep dive yields a chemical starting point for dark kinases and a cell active BRSK2 inhibitor” (Scientific Reports, 2020).

T2 sequence (Q13163 whole entry): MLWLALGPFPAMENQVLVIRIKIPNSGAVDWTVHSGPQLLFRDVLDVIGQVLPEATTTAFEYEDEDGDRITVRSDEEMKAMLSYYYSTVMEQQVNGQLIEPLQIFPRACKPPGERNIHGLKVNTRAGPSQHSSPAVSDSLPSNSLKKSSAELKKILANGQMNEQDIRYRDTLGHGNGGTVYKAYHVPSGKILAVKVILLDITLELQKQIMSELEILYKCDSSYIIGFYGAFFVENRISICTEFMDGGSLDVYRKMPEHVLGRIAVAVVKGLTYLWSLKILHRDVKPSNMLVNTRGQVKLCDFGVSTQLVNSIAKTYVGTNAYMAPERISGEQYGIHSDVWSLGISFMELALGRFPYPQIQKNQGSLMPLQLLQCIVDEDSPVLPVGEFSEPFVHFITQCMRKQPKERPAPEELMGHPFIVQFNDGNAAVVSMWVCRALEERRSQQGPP
Sequence of DAPK1 (P53355 whole entry): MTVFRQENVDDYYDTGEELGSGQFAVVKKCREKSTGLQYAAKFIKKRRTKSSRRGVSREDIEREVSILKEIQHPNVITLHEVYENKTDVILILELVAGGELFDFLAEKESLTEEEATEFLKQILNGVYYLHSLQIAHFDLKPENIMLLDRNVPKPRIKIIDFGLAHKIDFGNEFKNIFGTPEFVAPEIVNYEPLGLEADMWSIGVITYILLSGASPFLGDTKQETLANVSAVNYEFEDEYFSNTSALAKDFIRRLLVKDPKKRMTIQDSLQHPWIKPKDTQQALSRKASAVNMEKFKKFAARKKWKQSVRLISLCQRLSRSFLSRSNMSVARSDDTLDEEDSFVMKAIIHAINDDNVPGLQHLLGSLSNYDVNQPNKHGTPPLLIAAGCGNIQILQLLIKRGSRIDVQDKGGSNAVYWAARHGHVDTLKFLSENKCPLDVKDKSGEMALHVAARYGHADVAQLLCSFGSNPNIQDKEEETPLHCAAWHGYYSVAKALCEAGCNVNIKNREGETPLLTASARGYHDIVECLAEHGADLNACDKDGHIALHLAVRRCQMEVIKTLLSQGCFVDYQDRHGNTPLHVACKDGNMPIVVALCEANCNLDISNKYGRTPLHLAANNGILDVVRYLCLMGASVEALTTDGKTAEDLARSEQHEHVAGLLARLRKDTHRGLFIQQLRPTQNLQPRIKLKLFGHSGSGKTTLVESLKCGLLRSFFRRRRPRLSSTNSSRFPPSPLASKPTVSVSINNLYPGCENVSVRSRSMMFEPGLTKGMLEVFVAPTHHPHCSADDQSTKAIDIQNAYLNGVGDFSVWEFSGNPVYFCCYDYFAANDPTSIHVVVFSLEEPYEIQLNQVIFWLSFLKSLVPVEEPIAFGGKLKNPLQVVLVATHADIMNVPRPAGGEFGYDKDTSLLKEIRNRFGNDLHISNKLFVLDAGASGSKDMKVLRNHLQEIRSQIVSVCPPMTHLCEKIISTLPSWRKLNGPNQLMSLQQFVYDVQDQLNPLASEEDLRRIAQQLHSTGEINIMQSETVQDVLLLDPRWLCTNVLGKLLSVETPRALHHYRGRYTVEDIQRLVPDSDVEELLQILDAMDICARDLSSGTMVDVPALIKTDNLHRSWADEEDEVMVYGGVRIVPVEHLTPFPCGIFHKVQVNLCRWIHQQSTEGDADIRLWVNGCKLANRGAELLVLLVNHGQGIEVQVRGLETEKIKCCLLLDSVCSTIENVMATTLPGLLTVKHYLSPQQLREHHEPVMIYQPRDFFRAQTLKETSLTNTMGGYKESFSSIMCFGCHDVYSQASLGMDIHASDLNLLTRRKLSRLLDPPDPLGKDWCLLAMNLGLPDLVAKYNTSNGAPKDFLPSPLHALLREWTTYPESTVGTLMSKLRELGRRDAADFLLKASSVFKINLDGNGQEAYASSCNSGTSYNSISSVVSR
Sequence of NUAK1/ARK5 (O60285 whole entry): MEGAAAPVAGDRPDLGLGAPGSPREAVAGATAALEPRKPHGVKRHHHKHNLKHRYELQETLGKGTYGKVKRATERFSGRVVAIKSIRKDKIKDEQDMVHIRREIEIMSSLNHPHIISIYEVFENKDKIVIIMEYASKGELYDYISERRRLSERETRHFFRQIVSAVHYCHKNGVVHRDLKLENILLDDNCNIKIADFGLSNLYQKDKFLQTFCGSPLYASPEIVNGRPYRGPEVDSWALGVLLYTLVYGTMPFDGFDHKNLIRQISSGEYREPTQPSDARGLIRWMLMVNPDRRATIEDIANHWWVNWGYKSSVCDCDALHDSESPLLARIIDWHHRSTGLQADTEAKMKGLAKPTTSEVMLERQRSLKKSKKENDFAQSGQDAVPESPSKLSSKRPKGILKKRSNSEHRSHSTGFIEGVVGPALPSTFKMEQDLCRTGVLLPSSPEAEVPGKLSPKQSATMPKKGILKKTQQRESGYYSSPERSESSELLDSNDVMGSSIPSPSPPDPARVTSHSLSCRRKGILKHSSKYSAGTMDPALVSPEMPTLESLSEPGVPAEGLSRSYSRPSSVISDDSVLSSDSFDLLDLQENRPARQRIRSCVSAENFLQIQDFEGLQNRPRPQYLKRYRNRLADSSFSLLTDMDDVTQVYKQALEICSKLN
T4 sequence (O15197 32-1021): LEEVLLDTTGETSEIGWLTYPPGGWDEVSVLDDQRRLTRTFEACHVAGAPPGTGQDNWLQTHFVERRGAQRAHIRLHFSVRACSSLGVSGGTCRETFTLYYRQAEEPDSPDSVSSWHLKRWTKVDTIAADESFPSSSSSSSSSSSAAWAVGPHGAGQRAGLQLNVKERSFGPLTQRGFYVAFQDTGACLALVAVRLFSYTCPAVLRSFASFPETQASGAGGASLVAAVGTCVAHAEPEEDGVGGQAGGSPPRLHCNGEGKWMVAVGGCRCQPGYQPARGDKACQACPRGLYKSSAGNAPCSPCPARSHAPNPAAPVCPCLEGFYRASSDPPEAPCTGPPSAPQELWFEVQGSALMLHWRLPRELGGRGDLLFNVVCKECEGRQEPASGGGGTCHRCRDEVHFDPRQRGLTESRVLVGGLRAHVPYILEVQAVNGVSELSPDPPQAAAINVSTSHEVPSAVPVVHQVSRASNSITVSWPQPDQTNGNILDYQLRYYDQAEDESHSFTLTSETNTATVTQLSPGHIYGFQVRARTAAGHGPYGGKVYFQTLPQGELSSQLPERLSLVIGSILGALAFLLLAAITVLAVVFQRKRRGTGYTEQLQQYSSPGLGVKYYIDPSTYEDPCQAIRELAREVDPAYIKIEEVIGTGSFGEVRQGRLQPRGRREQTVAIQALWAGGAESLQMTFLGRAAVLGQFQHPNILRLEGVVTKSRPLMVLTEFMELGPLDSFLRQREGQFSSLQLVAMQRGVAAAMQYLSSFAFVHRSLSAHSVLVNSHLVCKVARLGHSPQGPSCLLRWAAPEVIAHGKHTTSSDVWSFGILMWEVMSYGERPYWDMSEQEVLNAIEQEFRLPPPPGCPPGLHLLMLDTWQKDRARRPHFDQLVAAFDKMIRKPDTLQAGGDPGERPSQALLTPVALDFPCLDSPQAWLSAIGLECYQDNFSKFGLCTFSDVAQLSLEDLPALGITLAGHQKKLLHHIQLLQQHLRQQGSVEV
T5 sequence (P51812 whole entry): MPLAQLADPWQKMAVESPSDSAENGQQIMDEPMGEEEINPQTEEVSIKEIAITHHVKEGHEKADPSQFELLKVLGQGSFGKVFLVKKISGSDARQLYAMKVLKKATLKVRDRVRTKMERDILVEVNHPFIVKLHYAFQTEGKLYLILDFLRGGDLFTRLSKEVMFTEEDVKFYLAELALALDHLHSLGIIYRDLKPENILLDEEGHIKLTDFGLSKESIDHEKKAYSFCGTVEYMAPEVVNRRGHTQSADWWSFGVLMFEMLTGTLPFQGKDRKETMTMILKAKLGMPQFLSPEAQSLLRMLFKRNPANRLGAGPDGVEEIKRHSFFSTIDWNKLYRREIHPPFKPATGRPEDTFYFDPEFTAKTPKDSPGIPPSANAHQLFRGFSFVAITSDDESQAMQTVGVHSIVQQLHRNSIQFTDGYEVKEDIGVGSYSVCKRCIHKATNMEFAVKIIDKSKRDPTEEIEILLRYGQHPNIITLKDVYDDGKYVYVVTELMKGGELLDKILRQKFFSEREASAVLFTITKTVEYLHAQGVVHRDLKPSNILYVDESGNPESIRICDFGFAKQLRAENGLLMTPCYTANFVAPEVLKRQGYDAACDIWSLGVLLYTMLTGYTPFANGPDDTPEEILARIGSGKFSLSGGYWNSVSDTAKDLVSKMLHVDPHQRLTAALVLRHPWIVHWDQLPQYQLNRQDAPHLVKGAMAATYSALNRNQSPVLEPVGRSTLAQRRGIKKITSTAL

By inhibition is commonly meant the percentage by which the read-out fell short of the control. Low values mean a response near the control, high ones a response far below the control. By IC50 is commonly meant the concentration at which inhibition is half-maximal. Low values mean inhibition by little substance, high ones a need for much substance. Take `COc1ccc2[nH]c3c4[nH]c5ccc(OC)cc5c4c4c(c3c2c1)C(=O)NC4=O` [GW296115]: the “TSA ΔTm at 10 μM (°C)” value in [1] was 12.0 °C. Further, the inhibition at 1 µM is 100% in [2]; 99.5% in [3]; 96.7% in [4]; 85% in assay [5]; 86% in assay [7]; 78% in [8]. Also, the inhibition at 1 µM in [9] stood at 76%; in assay [10] it was 85%; in [11], 82%; in assay [12], 75%; in [13], 83%. The same compound gave an IC50 in [6] of 11 nM.
